We go through five compounds from patent US10314883B2, “Compositions and methods for regulating blood pressure” (University of Virginia Patent Foundation, priority 2015, dated 2019).

Experiment [1] relates to anaesthetized guinea pigs. The following applies: injected into anaesthetized guinea pigs; cited from earlier work.
For experiment [2], the target named is T1, Panx1 (Mus musculus, UniProt Q9JIP4).
T1 construct: we progressively substituted amino acids in this region of full-length Panx1 with alanine residues; HA; expressed in transfected cells; host or cells: HEK293T cells, transient co-transfection with alpha1DAR plasmid (Origene, NM_013460, C-terminal Myc-DDK)
Briefly: Whole-cell patch clamp of CBX-sensitive Panx1 current in HEK293 cells cotransfected with mPanx1 and α1DAR. The experiment is classed as cell-based. The following applies: CBX 50 μmol/L after phenylephrine, +80 mV. On the procedure:
Human Embryonic Kidney (HEK) 293T cells were cultured as previously described, and were used until passage 20. For ATP measurements, 50,000 cells/well were seeded in 24 well plates pre-coated with 0.01% poly-L-lysine, and transfected using Lipofectamine 2000 (Invitrogen) according to the manufacturer protocol. Briefly, 0.4 μg of α1DAR and 0.4 μg of Panx1^WT, Panx1^KYP>AAA, Panx1^IVEQ>AAA or Panx1^YLK>AAA plasmids were added to each well along with 2 μl of Lipofectamine 2000. For electrophysiology measurements, 4 μg of α1DAR plasmid, 2 μg of Panx1^WT, Panx1^KYP>AAA, Panx1^IVEQ>AAA or Panx1^YLK>AAA plasmids, and 0.5 μg of GFP plasmid were mixed with 10 μl Lipofectamine 2000 and added to a well of 6-well plate seeded with ˜70% confluent HEK cells. Cells were split the next morning and plated onto a glass coverslip for recording. ATP measurements and whole-cell recordings were performed 24 hours after transfection.
Whole-cell recordings were obtained at room temperature from transiently transfected HEK293T cells using Axopatch 200B amplifier (Molecular Devices) in a bath solution composed of 140 mmol/L NaCl, 3 mmol/L KCl, 2 mmol/L MgCl2, 2 mmol/L CaCl2, 10 mmol/L HEPES and 10 mmol/L glucose (pH 7.3). Patch pipettes (3-5 MΩ) were filled with a Cs-/TEA-based internal solution, as previously described. Ramp voltage commands with 7-s intervals were applied using pCLAMP software and Digidata1322A digitizer (Molecular Devices). Peak whole-cell currents were determined at +80 mV and normalized to cell capacitance. Current mediated by Panx1 was defined by its sensitivity to carbenoxolone (CBX). In this system, no CBX-sensitive current is observed in HEK293T cells without Panx1. Basal current was recorded for approximately two minutes and PE (20 μmol/L) was applied to the bath solution, which was followed by addition of CBX (50 μmol/L). When indicated, cells were pre-incubated with bath solution containing IL2 peptide or its scrambled version at room temperature for 40-60 minutes prior to the experiment. The effect of PE on Panx1 current was quantified relative to CBX-sensitive basal current, and data was expressed as percent increase in CBX-sensitive current. All experiments were performed on 8 to 22 cells for each conditions tested. Data were analyzed using a Kruskall Wallis test (non-parametric one-way ANOVA) followed by Dunn's post-hoc test.
To test if α1AR stimulation triggered opening of the Panx1 channel and the importance of the region represented by the IL2 peptide, we cotransfected mPanx1 and α1DAR into HEK293 cells and monitored whole-cell currents by patch clamp electrophysiology.

Experiment [3] has as its system thoracodorsal arteries (TDA). Kind of experiment: Pressure myography: agonist-induced constriction of pressurized TDAs from C57Bl/6 mice with pannexin inhibitors or Panx1 mimetic peptides. The experiment is classed as cell-based, mouse. On the procedure: The contractile responses of pressurized thoracodorsal arteries (TDA) were measured as previously described. Briefly, TDA were isolated and placed in cold Krebs-HEPES until cannulation in a pressure arteriograph (Danish MyoTechnology). After a 30 minute equilibration period, cumulative concentrations of contractile agonists were applied to the TDA pressurized at 80 mmHg, and the vessel was visualized with an Olympus IX-71 microscope attached to a Hamamatsu EM-CCD camera coupled to Slidebook imaging software. […] Lastly, maximal diameter was measured at the end of each experiment in calcium-free Krebs-HEPES supplemented with EGTA (1 mmol/L) and sodium nitroprusside (10 μmol/L). In cases where the vessels were not constricting to the contractile agonist, their viability was assessed by applying 40 mM KCl and only TDA reaching 30% of the maximal diameter were considered for analysis. The contractile responses, as well as the basal tone, are expressed as a percentage of the maximal diameter.
Using pressure arteriography on TDA dissected from C57Bl/6 mice (as described; and aortic ring contraction, as described), we measured the effect of pannexin inhibitors, probenecid and 10Panx1, on the contractile response upon stimulation with different vasoconstrictors: phenylephrine (FIG. 1A), noradrenaline (also called norepinephrine) (FIG. 1B), serotonin (also known as 5-HT) (FIG. 1C) and endothelin-1 (FIG. 1D). […] In contrast, ^10Panx1 and probenecid had no effect on contraction of TDA measured in response to cumulative concentrations of serotonin or endothelin-1 (FIGS. 1C-D; Table 1).
To determine the region of Panx1 necessary for channel activation in response to α1AR stimulation, we produced short peptides derived from the intracellular regions of the Panx1 channel. We generated two peptides mimicking unique mouse Panx1 (mPanx1) sequences in the first intracellular loop (IL1 and IL2) and two peptides mimicking unique mPanx1 sequences in the C-terminal region, one in second intracellular loop (CT1) and one in the C-terminal tail (CT2) (FIG. 4A scissors indicate caspase 3 cleavage site; Table 3). All peptides also contained a TAT sequence to facilitate entry into cells and we verified the intracellular localization of each peptide by immunofluorescence detection of the TAT sequence in TDAs pre-incubated with each peptide (FIG. 7A). We tested the effect of each peptide on phenylephrine-induced contractile responses in pressurized TDAs from C57Bl/6 mice (FIGS. 4B-E). […] Note that these differences in effects of phenylephrine were similar in magnitude to those observed in arteries from SMC-specific Panx1-knockout mice and littermate controls (FIG. 2C, Table 2).

Experiment [4] has as its target T2, Panx1 (Homo sapiens, UniProt Q96RD7). The following applies: neurons; cited from earlier work.
Target sequence in this assay (Q96RD7 whole entry, species assumed): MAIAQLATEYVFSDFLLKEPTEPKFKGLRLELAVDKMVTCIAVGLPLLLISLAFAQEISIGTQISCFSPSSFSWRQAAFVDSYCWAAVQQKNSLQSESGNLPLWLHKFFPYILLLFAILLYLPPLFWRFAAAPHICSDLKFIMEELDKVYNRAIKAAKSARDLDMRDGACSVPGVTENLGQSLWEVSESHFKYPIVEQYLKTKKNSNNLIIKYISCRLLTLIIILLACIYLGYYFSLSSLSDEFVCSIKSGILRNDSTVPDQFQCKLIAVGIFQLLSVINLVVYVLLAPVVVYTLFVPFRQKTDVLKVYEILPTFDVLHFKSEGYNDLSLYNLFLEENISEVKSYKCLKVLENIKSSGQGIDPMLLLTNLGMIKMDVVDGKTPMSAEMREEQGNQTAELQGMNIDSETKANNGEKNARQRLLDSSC
For a further experiment, the system named is Cre/Panx1 mice. Kind of experiment: Blood pressure by radiotelemetry before and after tamoxifen in the conditional KO mouse model. The experiment is classed as in vivo. On the procedure:
Blood pressure was measured using radiotelemetry units (Data Sciences International, DSI) implanted in C57Bl/6, Cre^−/Panx1^F1, Cre^−/Panx1^WT, Cre^+/Panx1^WT, and Cre^+/Panx1^F1 mice. The catheter of a radiotelemetry unit (TA11PA-C10, DSI) was implanted in the mouse left carotid artery under isoflurane anesthesia, and the catheter was tunneled trough the radiotransmitter placed in a subcutaneous pouch along the right flank of the mouse, as previously described. After implantation, mice were allowed to recover for seven days.
For experiments on the conditional KO mouse model: blood pressure was measured using Dataquest A.R.T. 20 software (DSI) for five days before proceeding to tamoxifen injections at 1 mg/kg for ten days. Blood pressure was recorded for another five days 24 hours after the last tamoxifen injection. The change in mean arterial pressure (ΔMAP) was calculated by subtracting the average MAP measured for five days before tamoxifen injections to the mean arterial pressure measured for five days after the tamoxifen injections. […]
Based on the central role of α1AR signaling in blood pressure homeostasis, we evaluated the effect of Panx1 deletion on systemic blood pressure. Blood pressure was measured using radiotelemetry units as previously described by us. Blood pressure was measured on the conditional KO mouse model for five days before proceeding to tamoxifen injections, and for another five days 24 hours after the last tamoxifen injection. The change in mean arterial pressure (ΔMAP) was calculated by subtracting the average MAP measured for five days before tamoxifen injections to the MAP measured for five days after the tamoxifen injections. Day MAP was measured during the light cycle (06:00-18:00), while night MAP was measured during the nocturnal cycle (18:00 to 06:00). For experiments on C57Bl/6, basal blood pressure was measured continuously for 30 minutes before intraperitoneal injection of saline solution or peptide, and for 1.5 hours after the injection. […]

Experiment [5] has as its target T2, Panx1. The following applies: cited from earlier work.
Target sequence in this assay (Q96RD7 whole entry): as the sequence (Q96RD7 whole entry, species assumed) above

T1 sequence (Q9JIP4 whole entry): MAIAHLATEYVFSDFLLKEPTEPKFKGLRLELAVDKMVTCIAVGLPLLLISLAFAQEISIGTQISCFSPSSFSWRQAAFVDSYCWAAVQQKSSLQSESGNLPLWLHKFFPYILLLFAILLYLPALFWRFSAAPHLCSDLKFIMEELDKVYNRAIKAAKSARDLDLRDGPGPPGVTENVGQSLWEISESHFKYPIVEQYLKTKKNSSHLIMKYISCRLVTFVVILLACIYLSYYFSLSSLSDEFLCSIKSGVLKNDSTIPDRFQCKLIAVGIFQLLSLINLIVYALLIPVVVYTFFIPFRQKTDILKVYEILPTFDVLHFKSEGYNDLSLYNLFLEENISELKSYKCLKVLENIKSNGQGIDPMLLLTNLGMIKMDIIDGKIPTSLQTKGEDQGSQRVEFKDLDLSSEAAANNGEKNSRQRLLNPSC

Regarding `OC(c1cc(C(F)(F)F)nc2c(C(F)(F)F)cccc12)C1CCCCN1` (stereo not drawn) [mefloquine], the “effect on blood pressure” value in experiment [1] is listed as “induces hypotension”. On to `CC1(C)[C@@H](OC(=O)CCC(=O)O)CC[C@]2(C)[C@H]3C(=O)C=C4[C@@H]5C[C@@](C)(C(=O)O)CC[C@]5(C)CC[C@@]4(C)[C@]3(C)CC[C@@H]12` [CBX, carbenoxolone], for which the “effect on Panx1 whole-cell current” value on Panx1 [2] was “abolished the current”. With “mPanx1 305-RRLKVYEILPTFDVLH-318 (SEQ ID NO: 5) linked with TAT; previously published to inhibit NMDA-mediated Panx1 opening [CT1]”, the “effect on phenylephrine-induced constriction of pressurized TDAs” value in experiment [3] (TAT-linked peptides, C57Bl/6 TDAs) is “did not affect”. For the same compound, the “EMAX of phenylephrine for TDA constriction” value in experiment [3] (in presence of the named peptide) was 50.7 ± 9.08 percentage of maximal diameter. The “effect on NMDA-induced Panx1 activation” value with Panx1 [4] is listed as “prevent”. Regarding `CC/C(=C(\c1ccccc1)c1ccc(OCCN(C)C)cc1)c1ccccc1` [tamoxifen], the heart rate in the experiment on Cre/Panx1 mice (Cre^+/Panx1^Fl mice, after tamoxifen) worked out at 549±7 beats per min. Besides, in the experiment on Cre/Panx1 mice (Cre^+/Panx1^Fl mice, tamoxifen 1 mg/kg i.p. for ten days (induces SMC Panx1 deletion)), the “decrease of mean arterial blood pressure” value was found to be 4.6±2.1 mmHg. Also, the “change of mean arterial blood pressure” value in the experiment with Cre/Panx1 mice (mice retaining Panx1 (Cre^−/Panx1^WT, Cre^−/Panx1^Fl, Cre^+/Panx1^WT)) was “no evident changes”. Regarding `N[C@@H]1[C@H]2CN(c3nc4c(cc3F)c(=O)c(C(=O)O)cn4-c3ccc(F)cc3F)C[C@@H]12` [Trovafloxacin], the “inhibition of Panx1 channels” value on Panx1 [5] is on record as “can also inhibit Panx1 channels”.
